Drawing on PubChem BioAssay AID2060488 (Molecular Pharmacology Branch, DTP, NCI, 2025), this text covers viability, T/C and IC50 for five compounds.

Each structure is given as a SMILES string. Where “and” joins values, the source holds several entries; their conditions need not be identical. Equal values may be shown once.

This test concerns 966289-007-R4-J1-PDC complex spheroid viability. Kind of test: Anticancer human tumor 966289-007-R4-J1-PDC patient-derived pancreatic adenocarcinoma cell line growth inhibition [GQUAD]. The following applies: for viability, T/C: stronger effect = lower value. From the text: DNA G-quadruplex Stabilizer Agents in Combinations in Complex Spheroids
A high-throughput screen of multi-cell type tumor spheroids was designed to identify active combinations of DNA G-quadruplex stabilizer agents and targeted small molecules. Complex spheroids include a stromal component modeled by human endothelial cells (HUVEC) and fibroblasts modeled by human mesenchymal stem cells (MSCs). The concentration ranges selected for each drug and investigational agent were based upon clinically achievable concentrations if the clinical Cmax of the agent was known.
Compounds. The drugs and investigational agents: pidnarulex (CX-5461; NSC782164), APTO-253 (NSC789042), BRACO-19 (NSC847499), peposertib (NSC802822), ceralasertib (NSC780249), elimusertib (NSC800525), camonsertib (NSC841442), AZD-1390 (NSC803789), olaparib (NSC753686), talazoparib (NSC767125), ART-558 (NSC835418), sotorasib (NSC818433), MRTX-1133 (NSC836407), SN-38 (NSC673596), topotecan (NSC609699), etoposide (NSC141540), doxorubicin (NSC123127), gemcitabine (NSC613327), 5-fluorouracil (NSC19893), paclitaxel (NSC125973), vemurafenib (NSC761431), panobinostat (NSC761190), R-306465 (JNJ-16241199; NSC773264), adavosertib (NSC754352), TP-3654 (NSC805149), carboplatin (NSC241240), KSQ-4279 (NSC840948), and staurosporine (NSC755774) were obtained from the National Cancer Institute (NCI) Developmental Therapeutics Program Chemical Repository (34). The FDA-approved anticancer drug set is available from the NCI Developmental Therapeutics Program. […] The stock solutions were prepared in dimethyl sulfoxide (DMSO, Sigma-Aldrich, St. Louis, MO, cat. D2650) at 800-fold the tested concentration and stored at -70 degrees C prior to their use. All drugs and investigational agents were tested over a range starting from a high concentration at or near the clinical Cmax and decreasing in half-log increments. If the clinical Cmax for an agent had not been determined, the highest concentration tested was 10 microM.
2.3 Cell Culture. All cells were maintained in an incubator at 37 degrees C and 5% CO2 with 95% humidity. The PDC lines were cultured according to standard operating procedures established by the NCI PDMR. All PDCs were thawed and cultured in Matrigel-coated flasks prepared with a working solution of 1X Ham's F-12 nutrient mix, without supplementation (Invitrogen, cat. 11765054), 100 U/mL penicillin-streptomycin (Invitrogen, cat. 15140122), and 2.5% Matrigel (Corning Inc., cat. 354248) for the first three passages. The 857933-349-R-J2-PDC line was cultured in 6C/Colon 1B media, which includes advanced DMEM/F-12 (Thermo Fisher Scientific, cat. 12634028), 10 mM HEPES (Thermo Fisher Scientific, cat. 15630080), 1X GlutaMAX supplement (Thermo Fisher Scientific, cat. 35050061), 0.1 mg/mL primocin (InvivoGen, cat. ant-pm-2), 10% defined fetal bovine serum, heat inactivated (HyClone Laboratories Inc., cat. SH30070.03HI), 50% L-WRN conditioned media (ATCC, cat. CRL-3276), 1.25 mM N-Acetyl-L-cysteine (Sigma-Aldrich, cat. A9165), 10 mM nicotinamide (Sigma-Aldrich, cat. N0636), 1X B-27 supplement (Thermo Fisher Scientific, cat. 17504044), 1X N-2 supplement (Thermo Fisher Scientific, cat. 17502048), 10 microM Y-27632 dihydrochloride (Tocris Bioscience, cat. 1254), and 50 ng/mL human EGF recombinant protein (Thermo Fisher Scientific, cat. PHG0311). The 485176-168-R4-J1-PDC line was cultured in Panc media, which includes all 6C/Colon 1B media components plus 100 ng/mL human FGF-10 (Thermo Fisher Scientific, cat. 100-26), 500 nM SB-431542 (Selleckchem, cat. S1067), and gastrin (Tocris, cat. 3006).
[…]

[1] abbreviates: curve of first compound, second compound 0.0316 µM.
[2] abbreviates: curve of first compound, second compound 0.1 µM.
The mark [3] stands for this setting: curve of first compound, second compound 0.316 µM.
[4] abbreviates: curve of first compound, second compound 1 µM.
Where [5] appears, read: curve of first compound, second compound 3.16 µM.
The mark [6] stands for this setting: curve of first compound, second compound 10 µM.
Where [7] appears, read: second compound 0.0316 µM, first compound 0.0316 µM.
Where [8] appears, read: second compound 0.0316 µM, first compound 0.1 µM.
[9] abbreviates: second compound 0.0316 µM, first compound 0.316 µM.
[10] abbreviates: second compound 0.0316 µM, first compound 1 µM.
[11] abbreviates: second compound 0.0316 µM, first compound 3.16 µM.
Setting [12] is: second compound 0.0316 µM, first compound 10 µM.
Setting [13] is: second compound 0.1 µM, first compound 0.0316 µM.
Setting [14] is: second compound 0.1 µM, first compound 0.1 µM.
[15] abbreviates: second compound 0.1 µM, first compound 0.316 µM.
The mark [16] stands for this setting: second compound 0.1 µM, first compound 1 µM.
Setting [17] is: second compound 0.1 µM, first compound 3.16 µM.
Setting [18] is: second compound 0.1 µM, first compound 10 µM.
The mark [19] stands for this setting: second compound 0.316 µM, first compound 0.0316 µM.
[20] abbreviates: second compound 0.316 µM, first compound 0.1 µM.
Setting [21] is: second compound 0.316 µM, first compound 0.316 µM.
The mark [22] stands for this setting: second compound 0.316 µM, first compound 1 µM.
[23] abbreviates: second compound 0.316 µM, first compound 3.16 µM.
Setting [24] is: second compound 0.316 µM, first compound 10 µM.
Where [25] appears, read: second compound 1 µM, first compound 0.0316 µM.
The mark [26] stands for this setting: second compound 1 µM, first compound 0.1 µM.
Where [27] appears, read: second compound 1 µM, first compound 0.316 µM.
[28] abbreviates: second compound 1 µM, first compound 1 µM.
The mark [29] stands for this setting: second compound 1 µM, first compound 3.16 µM.
The mark [30] stands for this setting: second compound 1 µM, first compound 10 µM.
[31] abbreviates: second compound 3.16 µM, first compound 0.0316 µM.
The mark [32] stands for this setting: second compound 3.16 µM, first compound 0.1 µM.
[33] abbreviates: second compound 3.16 µM, first compound 0.316 µM.
Where [34] appears, read: second compound 3.16 µM, first compound 1 µM.
[35] abbreviates: second compound 3.16 µM, first compound 3.16 µM.
Where [36] appears, read: second compound 3.16 µM, first compound 10 µM.
Setting [37] is: second compound 10 µM, first compound 0.0316 µM.
The mark [38] stands for this setting: second compound 10 µM, first compound 0.1 µM.
The mark [39] stands for this setting: second compound 10 µM, first compound 0.316 µM.
Setting [40] is: second compound 10 µM, first compound 1 µM.
Where [41] appears, read: second compound 10 µM, first compound 3.16 µM.
Setting [42] is: second compound 10 µM, first compound 10 µM.
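Note: spheroids exposed to the agents for seven days before readout.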
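Throughout, for viability, T/C: percent viability relative to DMSO vehicle control wells taken as 100%.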

As to `CC(C)n1c(=O)n(C)c2cnc3cc(F)c(-c4ccc(OCCCN5CCCCC5)nc4)cc3c21`, the viability, T/C is, setting by setting: (compound 0.0316 µM) 101% and 103% and 95.4%; (compound 0.1 µM) 103% and 106% (2×); (compound 0.316 µM) 114% and 106% and 102%; (compound 1 µM) 107% and 105% and 114%; (compound 3.16 µM) 107% (2×) and 116%; (compound 10 µM) 86% and 88.6% and 91.8%. Besides, the half-maximal inhibitory concentration (IC50) (curve of compound) is over 10000 nM.

With `O=C(c1cc(Cc2n[nH]c(=O)c3ccccc23)ccc1F)N1CCN(C(=O)C2CC2)CC1` + Cc1[nH]c2ccc(F)cc2c1-c1nc2c3cccnc3c3ncccc3c2[nH]1, the IC50 under setting [1] came out at 4590 nM; the IC50 under setting [2] is 4390 nM; the IC50 under setting [3] stood at 3300 nM; the IC50 under setting [4] came out at 4380 nM; the IC50 under setting [5] turned out to be 2990 nM; the IC50 under setting [6] worked out at 2790 nM. In addition, the viability, T/C is 113% under setting [7]; 102% under setting [8]; 111% under setting [9]; 101% under setting [10]; 68.6% under setting [11]; 11.5% under setting [12]. Also, the viability, T/C runs as follows: under setting [13], 107%; under setting [14], 103%; under setting [15], 111%; under setting [16], 106%; under setting [17], 64.1%; under setting [18], 14.8%. For the same compound, the viability, T/C runs as follows: under setting [19], 93%; under setting [20], 107%; under setting [21], 106%; under setting [22], 108%; under setting [23], 51.4%; under setting [24], 15%. The viability, T/C is 95.2% under setting [25]; 101% under setting [26]; 108% under setting [27]; 109% under setting [28]; 64.5% under setting [29]; 13.1% under setting [30]. In addition, the viability, T/C is 104% under setting [31]; 110% under setting [32]; 111% under setting [33]; 105% under setting [34]; 47.2% under setting [35]; 7.55% under setting [36]. The viability, T/C is, setting by setting: under setting [37], 104%; under setting [38], 103%; under setting [39], 112%; under setting [40], 99.8%; under setting [41], 44%; under setting [42], 4.64%.

For the compound `Cn1ncnc1[C@H]1c2n[nH]c(=O)c3cc(F)cc(c23)N[C@@H]1c1ccc(F)cc1`, the viability, T/C is 105% and 99.3% and 95.6% (compound 0.000999 µM); 91.2% and 98.8% and 98.2% (compound 0.00316 µM); 113% and 105% and 112% (compound 0.00999 µM); 92.4% and 104% and 99.6% (compound 0.0316 µM); 48.8% and 72.8% and 46.1% (compound 0.0999 µM); 22.8% and 22.4% and 18% (compound 0.316 µM). The IC50 (curve of compound) was 96.1 nM and 168 nM and 91.9 nM.

For `O=C(c1cc(Cc2n[nH]c(=O)c3ccccc23)ccc1F)N1CCN(C(=O)C2CC2)CC1`, the viability, T/C (compound 0.0316 µM) was 111% and 99.1% and 104%; the viability, T/C (compound 0.1 µM) was 98.8% and 108% and 98.4%; the viability, T/C (compound 0.316 µM) is 109% and 105% and 111%; the viability, T/C (compound 1 µM) is 106% and 108% and 112%; the viability, T/C (compound 3.16 µM) was 67.5% and 82.8% and 61.1%; the viability, T/C (compound 10 µM) is 11.2% and 10.4% and 14.9%. In addition, where the note is “curve of compound”, the IC50 is 4520 nM and 5320 nM and 4180 nM.

Consider `CC(C)n1c(=O)n(C)c2cnc3cc(F)c(-c4ccc(OCCCN5CCCCC5)nc4)cc3c21` + Cc1cnc(CNC(=O)c2c(=O)c3ccc(N4CCCN(C)CC4)nc3n3c2sc2ccccc23)cn1, for which the IC50 reads like this: under setting [1], under 31.6 nM; under setting [2], under 31.6 nM; under setting [3], under 31.6 nM; under setting [4], under 31.6 nM; under setting [5], under 31.6 nM; under setting [6], under 31.6 nM. Besides, the viability, T/C under setting [7] is 36.8%; the viability, T/C under setting [8] was 18.8%; the viability, T/C under setting [9] is 21.1%; the viability, T/C under setting [10] is 15.4%; the viability, T/C under setting [11] was 33.4%; the viability, T/C under setting [12] is 31.6%. Also, the viability, T/C reads like this: under setting [13], 10.5%; under setting [14], 7.68%; under setting [15], 8.96%; under setting [16], 9.72%; under setting [17], 12.6%; under setting [18], 17.9%. Moreover, the viability, T/C under setting [19] was 6.19%; the viability, T/C under setting [20] is 6.34%; the viability, T/C under setting [21] is 5.97%; the viability, T/C under setting [22] was 6.08%; the viability, T/C under setting [23] was 7.07%; the viability, T/C under setting [24] is 8.93%. In addition, the viability, T/C runs as follows: under setting [25], 3.82%; under setting [26], 4.77%; under setting [27], 3.79%; under setting [28], 4.54%; under setting [29], 5.48%; under setting [30], 5.76%. The viability, T/C under setting [31] was 1.67%; the viability, T/C under setting [32] was 2.31%; the viability, T/C under setting [33] was 1.96%; the viability, T/C under setting [34] was 2.66%; the viability, T/C under setting [35] is 3.94%; the viability, T/C under setting [36] was 3%. Further, the viability, T/C is 0.09% under setting [37]; 0.12% under setting [38]; 0.27% under setting [39]; 0.16% under setting [40]; 0.16% under setting [41]; 0.15% under setting [42].
